Target: recombinant mTOR (FLAG-tagged, amino acid residues 1362 to 2549) (Homo sapiens, UniProt P42345)
Experiment: Alternative Enzyme Assay: AlphaScreen, inhibition of phosphorylation by recombinant mTOR
Type: biochemical
Details: Alternative Enzyme Assay, upper bounds; read-out: IC50 values against mTOR

Chain of recombinant mTOR (FLAG-tagged, amino acid residues 1362 to 2549) (P42345 1362-2549): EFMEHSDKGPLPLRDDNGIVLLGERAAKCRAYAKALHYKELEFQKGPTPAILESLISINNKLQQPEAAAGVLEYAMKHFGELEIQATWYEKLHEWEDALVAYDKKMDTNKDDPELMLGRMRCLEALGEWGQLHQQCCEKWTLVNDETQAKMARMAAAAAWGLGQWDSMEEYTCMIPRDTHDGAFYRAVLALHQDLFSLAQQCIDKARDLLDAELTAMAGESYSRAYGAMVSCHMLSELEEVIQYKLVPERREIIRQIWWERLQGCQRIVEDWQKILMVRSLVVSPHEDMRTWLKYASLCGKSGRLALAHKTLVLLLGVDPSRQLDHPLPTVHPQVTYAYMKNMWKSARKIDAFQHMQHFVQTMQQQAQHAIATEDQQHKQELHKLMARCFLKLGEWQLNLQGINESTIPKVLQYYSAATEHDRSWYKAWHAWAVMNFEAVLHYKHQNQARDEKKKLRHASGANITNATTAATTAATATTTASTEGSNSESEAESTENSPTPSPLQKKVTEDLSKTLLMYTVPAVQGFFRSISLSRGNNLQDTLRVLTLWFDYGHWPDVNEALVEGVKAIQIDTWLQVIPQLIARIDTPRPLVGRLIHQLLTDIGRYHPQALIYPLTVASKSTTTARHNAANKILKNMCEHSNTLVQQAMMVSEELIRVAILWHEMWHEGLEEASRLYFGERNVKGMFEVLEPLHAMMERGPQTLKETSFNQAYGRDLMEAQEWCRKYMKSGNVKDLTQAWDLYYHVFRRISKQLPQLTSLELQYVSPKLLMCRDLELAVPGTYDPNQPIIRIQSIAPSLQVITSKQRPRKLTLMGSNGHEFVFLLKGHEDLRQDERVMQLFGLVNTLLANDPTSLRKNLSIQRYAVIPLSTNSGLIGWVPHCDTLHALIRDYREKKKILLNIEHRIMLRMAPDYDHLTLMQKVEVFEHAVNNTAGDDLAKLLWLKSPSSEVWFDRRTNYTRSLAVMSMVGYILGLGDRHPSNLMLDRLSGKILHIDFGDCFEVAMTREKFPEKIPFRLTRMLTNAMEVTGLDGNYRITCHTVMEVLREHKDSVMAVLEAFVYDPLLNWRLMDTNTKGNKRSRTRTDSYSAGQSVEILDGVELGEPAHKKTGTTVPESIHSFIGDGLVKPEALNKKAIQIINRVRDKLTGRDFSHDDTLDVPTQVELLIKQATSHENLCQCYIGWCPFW

IC50 [µM] | Compound
< 10 | O=[N+]([O-])c1cccc(-c2nc(N3CCOCC3)c3ccc(-c4ccc(Cl)cc4)nc3n2)c1 [Example 9v]
< 10 | COc1ccc(-c2ccc3c(N4CCOCC4)nc(-c4ccc(OC)c(CO)c4)nc3n2)cc1CO [Example 9q]
< 10 | C[C@@H]1CN(c2ccc3c(N4CCOCC4)nc(-c4ccc(Cl)cc4)nc3n2)C[C@H](C)O1 [Example 9s]
< 10 | CC(C)CCCOc1ccc(-c2ccc3c(N4CCOCC4)nc(N4C[C@@H](C)O[C@@H](C)C4)nc3n2)cc1 [Example 1bx]
< 10 | COc1cccc(-c2nc(N3CCOCC3)c3ccc(-c4ccc(Cl)cc4)nc3n2)c1 [Example 9u]
< 10 | C[C@@H]1CN(c2nc(N3CCOCC3)c3ccc(-c4ccc(OCc5ccc(F)c(F)c5)cc4)nc3n2)C[C@H](C)O1 [Example 1bw]
< 10 | COCc1cccc(-c2nc(N3CCOCC3)c3ccc(-c4ccc(Cl)cc4)nc3n2)c1 [Example 9z]
< 10 | N#Cc1cccc(-c2nc(N3CCOCC3)c3ccc(-c4ccc(Cl)cc4)nc3n2)c1 [Example 9ab]
< 10 | O=Cc1cccc(-c2nc(N3CCOCC3)c3ccc(-c4ccc(Cl)cc4)nc3n2)c1 [Example 9w]

Test system: phosphorylation of Serine 473 in Akt in MDA-MB-468 cells
Experiment: In Vitro phospho-Ser473 Akt Assay (Acumen Explorer)
Type: cell-based
Details: Homo sapiens, MDA-MB-468, read-out: IC50 values against mTOR (phospho-Ser473 Akt assay)

Compound | IC50 [µM]
COc1ccc(-c2ccc3c(N4CCOC[C@@H]4C)nc(N4CCOC[C@@H]4C)nc3n2)cc1CNC1CC1 [Example 14al] | < 0.1
C[C@H]1COCCN1c1nc(N2CCC(c3ccncc3)CC2)nc2nc(-c3ccc(N)nc3)ccc12 [Example 12e] | < 11
CNc1nc(N2CCOC[C@@H]2C)c2ccc(-c3ccc(OC)c(CO)c3)nc2n1 [28 bp] | < 11
C[C@H]1COCCN1c1nc(N2CCOC[C@@H]2C)c2ccc(-c3ccc(F)c(CNCCF)c3)nc2n1 [Example 14ab] | < 11
CC(C)CC(=O)NCc1cc(-c2ccc3c(N4CCOC[C@@H]4C)nc(N4CCOC[C@@H]4C)nc3n2)ccc1F [Example 15y] | < 11
CC(C)C(=O)NCc1cc(-c2ccc3c(N4CCOC[C@@H]4C)nc(N4CCOC[C@@H]4C)nc3n2)ccc1F [Example 15w] | < 11
C[C@H]1COCCN1c1nc(N2CCOC[C@@H]2C)c2ccc(-c3ccc4nc[nH]c(=O)c4c3)nc2n1 [Example 11cl] | < 11
C[C@@H]1CN(c2nc(N3CCOC[C@@H]3C)c3ccc(-c4ccncc4)nc3n2)C[C@H](C)O1 [Example 11ce] | < 11
COc1ccc(-c2ccc3c(N4CCOC[C@@H]4C)nc(N4CCCC(c5ccccc5)C4)nc3n2)cc1CO (some centres unmarked) [Example 28j] | < 11
COc1ccc(-c2ccc3c(N4CCOC[C@@H]4C)nc(-c4cccc(C(F)(F)F)c4)nc3n2)cc1CO [Example 29m] | < 11
COc1ccc(-c2ccc3c(N4CCOC[C@@H]4C)nc(N4CCC5CCCCC5C4)nc3n2)cc1CO (some centres unmarked) [Example 28ag] | < 11
COc1ccc(-c2ccc3c(N4CCOCC4C)nc(N4CCOC[C@@H]4C)nc3n2)cc1CNC1CCCCCCC1 (some centres unmarked) [Example 14bf] | < 0.1
C[C@H]1COCCN1c1nc(N2CCOC[C@@H]2C)c2ccc(-c3ccc(CNC4CC4)o3)nc2n1 [Example 17e] | < 11
COc1ccc(-c2ccc3c(N4CCOC[C@@H]4C)nc(N4CCC(Cc5ccccc5)CC4)nc3n2)cc1CO [Example 28al] | < 11
CCN(C)C(=O)c1cc(-c2ccc3c(N4CCOC[C@@H]4C)nc(N4CCOC[C@@H]4C)nc3n2)ccc1OC [Example 13u] | < 11
Cc1nn(C)c(C)c1-c1nc(N2CCOC[C@@H]2C)c2ccc(-c3cccc(CO)c3)nc2n1 [Example 29w] | < 11
C[C@H]1COCCN1c1nc(N2CCOC[C@@H]2C)c2ccc(-c3cccc(C(=O)N4CCN(C)CC4)c3)nc2n1 [Example 11bf] | < 11
COc1ccc(-c2ccc3c(N4CCOCC4C)nc(N4CCOC[C@@H]4C)nc3n2)cc1CNC1CCOCC1 (some centres unmarked) [Example 14aq] | < 0.1
C[C@H]1COCCN1c1nc(-c2ccncc2)nc2nc(-c3cccc(CO)c3)ccc12 [Example 29q] | < 11
CC(=O)N(C)Cc1ccc(-c2ccc3c(N4CCOC[C@@H]4C)nc(N4CCOC[C@@H]4C)nc3n2)cc1 [Example 15r] | < 11
COCC(=O)NCc1cc(-c2ccc3c(N4CCOC[C@@H]4C)nc(N4CCOC[C@@H]4C)nc3n2)ccc1F [Example 15u] | < 11
CNCCNc1nc(N2CCOC[C@@H]2C)c2ccc(-c3ccc(OC)c(CO)c3)nc2n1 [Example 28bv] | < 11
C[C@H]1COCCN1c1nc(N2CCOC[C@@H]2C)c2ccc(-c3ccc(CNc4cc[nH]n4)o3)nc2n1 [Example 17i] | < 11
CC(C)CC(=O)NCc1cccc(-c2ccc3c(N4CCOC[C@@H]4C)nc(N4CCOC[C@@H]4C)nc3n2)c1 [Example 15f] | < 11
COc1ccc(-c2ccc3c(N4CCOC[C@@H]4C)nc(NCCO)nc3n2)cc1CO [Example 28bs] | < 11
COc1cncc(-c2nc(N3CCOC[C@@H]3C)c3ccc(-c4cccc(CO)c4)nc3n2)c1 [Example 29s] | < 11

Compound | IC50 [µM]
CC(=O)NCc1cc(-c2ccc3c(N4CCOC[C@@H]4C)nc(N4CCOC[C@@H]4C)nc3n2)ccc1F [Example 15t] | < 11
C[C@H]1COCCN1c1nc(N2CCC(CO)CC2)nc2nc(-c3cccc(C(N)=O)c3)ccc12 [Example 12h] | < 11
COc1ccc(CCNCc2cc(-c3ccc4c(N5CCOCC5C)nc(N5CCOC[C@@H]5C)nc4n3)ccc2OC)cc1 (some centres unmarked) [Example 14bd] | < 0.1
CC(C)C(=O)NCc1cccc(-c2ccc3c(N4CCOC[C@@H]4C)nc(N4CCOC[C@@H]4C)nc3n2)c1 [Example 15d] | < 11
C[C@H]1COCCN1c1nc(N2CCOC[C@@H]2C)c2ccc(-c3cccc(CS(C)(=O)=O)c3)nc2n1 [Example 14t] | < 11
C[C@H]1COCCN1c1nc(N2CCOC[C@@H]2C)c2ccc(-c3ccnc(F)c3)nc2n1 [Example 11au] | < 11
COC(=O)[C@@H]1C[C@@H](O)CN1c1nc(N2CCOC[C@@H]2C)c2ccc(-c3ccc(OC)c(CO)c3)nc2n1 [Example 28aa] | < 11
COc1ccc(-c2ccc3c(N4CCOC[C@@H]4C)nc(NCCN(C)C)nc3n2)cc1CO [Example 28cb] | < 11
C[C@H]1COCCN1c1nc(N2CCOC[C@@H]2C)c2ccc(-c3ccc(F)c(CNC(=O)C(F)(F)F)c3)nc2n1 [Example 15z] | < 11
COCCNc1nc(N2CCOC[C@@H]2C)c2ccc(-c3ccc(OC)c(CO)c3)nc2n1 [Example 28by] | < 11
Cc1ccc(-c2cnc3c(N4CCOC[C@@H]4C)nc(N4C[C@@H](C)O[C@@H](C)C4)nc3n2)cc1 [Example 22b] | < 11
COc1ccc(-c2ccc3c(N4CCOC[C@@H]4C)nc(N4CCC(N5CCCCC5)CC4)nc3n2)cc1CO [Example 28z] | < 11
C[C@H]1COCCN1c1nc(N2CCOC[C@@H]2C)c2ccc(-c3ccc(F)nc3)nc2n1 [Example 11ah] | < 11
C[C@H]1COCCN1c1nc(N2CCOC[C@@H]2C)c2ccc(-c3ccc(F)c(CNC4CC4)c3)nc2n1 [Example 14v] | < 11
COc1ccc(-c2ccc3c(N4CCOC[C@@H]4C)nc(N4CCN(CCO)CC4)nc3n2)cc1CO [Example 28ci] | < 0.3
C[C@H]1COCCN1c1nc(N2CCC(C(N)=O)CC2)nc2nc(-c3ccc(Cl)cc3)ccc12 [Example 28dj] | < 11
C[C@H]1COCCN1c1nc(N2CCOC[C@@H]2C)c2ccc(-c3ccc(F)c(CNC(=O)C4CCC4)c3)nc2n1 [Example 15x] | < 11
COc1ccc(-c2ccc3c(N4CCOC[C@@H]4C)nc(-c4cccc(CN)c4)nc3n2)cc1CO [Example 29e] | < 11
C[C@H]1COCCN1c1nc(N2CCOC[C@@H]2C)c2ccc(-c3ccncc3)nc2n1 [Example 11ar] | < 11
C[C@H]1COCCN1c1nc(N2CCOC[C@@H]2C)c2ccc(-c3cccc(C#N)c3)nc2n1 [Example 11aw] | < 11
C[C@H]1COCCN1c1nc(N2CCOC[C@@H]2C)c2ccc(-c3ccc(N)cc3)nc2n1 [Example 11az] | < 0.1
C[C@H]1COCCN1c1nc(N2CCCC(CO)C2)nc2nc(-c3cccc(C(N)=O)c3)ccc12 (some centres unmarked) [Example 12d] | < 11
COc1ccc(-c2ccc3c(N4CCOC[C@@H]4C)nc(N4CCC(N5CCCC5)CC4)nc3n2)cc1CO [Example 28ai] | < 11
CNC(=O)c1ccc(-c2ccc3c(N4CCOC[C@@H]4C)nc(N4CCOC[C@@H]4C)nc3n2)cc1 [Example 11ak] | < 0.1
COCc1cccc(-c2nc(N3CCOC[C@@H]3C)c3ccc(-c4ccc(OC)c(CO)c4)nc3n2)c1 [Example 29l] | < 11
C[C@@H]1CCCCN1c1nc(N2CCOC[C@@H]2C)c2ccc(-c3ccc(Cl)cc3)nc2n1 [Example 28dg] | < 11

Same assay, conditions: Homo sapiens; MDA-MB-468 cells, 2 hours; read-out: IC50, phospho-Ser473 Akt assay (cellular IC50, measured by pAkt)

IC50 [µM] | Compound
0.0141 | C[C@H]1COCCN1c1nc(N2CCOC[C@@H]2C)c2ccc(-c3cccc(N)c3)nc2n1 [Example 11dr, 3-[2,4-Bis-((S)-3-methyl-morpholin-4-yl)-pyrido[2,3-d]pyrimidin-7-yl]-phenylamine]
0.505 | CC(C)S(=O)(=O)Nc1cccc(-c2ccc3c(N4CCOC[C@@H]4C)nc(N4CCOC[C@@H]4C)nc3n2)c1 [Example 25b]
0.0607 | C[C@H]1COCCN1c1nc(N2CCOC[C@@H]2C)c2ccc(-c3ccc4[nH]nc(N)c4c3)nc2n1 [Example 11ds, 5-[2,4-Bis-((S)-3-methyl-morpholin-4-yl)-pyrido[2,3-d]pyrimidin-7-yl]-1H-indazol-3-ylamine]
0.682 | CNC(=O)C1CCN(c2nc(N3CCOC[C@@H]3C)c3ccc(-c4ccc(N)nc4)nc3n2)CC1 [Example 28dk]
0.295 | C[C@H]1COCCN1c1nc(N2CCOCC2)nc2nc(-c3ccc(N)nc3)ccc12 [Example 28dl]

Same assay, conditions: Homo sapiens; MDA-MB-468 cells, compounds of Formula I(B); read-out: IC50 values against mTOR (phospho-Ser473 Akt assay)

IC50 [µM] | Compound
< 0.1 | COc1ccc(-c2ccc3c(N4CCOC[C@@H]4C)nc(N4CCOC[C@@H]4C)nc3n2)cc1CO [Example 11a]
< 0.1 | CNC(=O)c1cccc(-c2ccc3c(N4CCOC[C@@H]4C)nc(N4CCOC[C@@H]4C)nc3n2)c1 [Example 11ap]

From patent publication US20080194546A1, “Pyrido-, Pyrazo- and Pyrimido-Pyrimidine Derivatives as mTOR Inhibitors” (KuDOS Pharmaceuticals Limited, priority 2005, published 2008)
